According to the kinase profiling compilation of Christmann-Franck et al. (2016):

How the values were obtained:
Test in all cases: Caliper, Mobility shift assay off-chip
MKNK1 (human) = MKNK1 (human) (UniProt Q9BUB5)
AXL (human) = AXL (human) (UniProt P30530)
INSRR (human) = INSRR (human) (UniProt P14616)
MAPK13 (human) = MAPK13 (human) (UniProt O15264)
NTRK1 (human) = NTRK1 (human) (UniProt P04629)
MAPK3 (human) = MAPK3 (human) (UniProt P27361)
EPHA4 (human) = EPHA4 (human) (UniProt P54764)
MAPK9 (human) = MAPK9 (human) (UniProt P45984)
RPS6KA1 KD1 KD2 (human) = RPS6KA1 KD1 KD2 (human) (UniProt Q15418)
STK38L (human) = STK38L (human) (UniProt Q9Y2H1)
GSK3A (human) = GSK3A (human) (UniProt P49840)
CSNK1G3 (human) = CSNK1G3 (human) (UniProt Q9Y6M4)
RET (human) = RET (human) (UniProt P07949)
ROCK2 (human) = ROCK2 (human) (UniProt O75116)
HCK (human) = HCK (human) (UniProt P08631)
EPHA6 (human) = EPHA6 (human) (UniProt Q9UF33)
MAPKAPK3 (human) = MAPKAPK3 (human) (UniProt Q16644)
CAMK4 (human) = CAMK4 (human) (UniProt Q16566)
AKT1 (human) = AKT1 (human) (UniProt P31749)
TBK1 (human) = TBK1 (human) (UniProt Q9UHD2)
SGK1 (human) = SGK1 (human) (UniProt O00141)
AKT3 (human) = AKT3 (human) (UniProt Q9Y243)
EPHA3 (human) = EPHA3 (human) (UniProt P29320)
PRKACB (human) = PRKACB (human) (UniProt P22694)
MERTK (human) = MERTK (human) (UniProt Q12866)
EPHA8 (human) = EPHA8 (human) (UniProt P29322)
RPS6KA3 KD1 KD2 (human) = RPS6KA3 KD1 KD2 (human) (UniProt P51812)
CLK3 (human) = CLK3 (human) (UniProt P49761)
STK4 (human) = STK4 (human) (UniProt Q13043)
MAPK8 (human) = MAPK8 (human) (UniProt P45983)
PDK4 (human) = PDK4 (human) (UniProt Q16654)
RPS6KA2 KD1 KD2 (human) = RPS6KA2 KD1 KD2 (human) (UniProt Q15349)
RPS6KA2 KD1 KD2 (human), sequence (Q15349 whole entry, looked up): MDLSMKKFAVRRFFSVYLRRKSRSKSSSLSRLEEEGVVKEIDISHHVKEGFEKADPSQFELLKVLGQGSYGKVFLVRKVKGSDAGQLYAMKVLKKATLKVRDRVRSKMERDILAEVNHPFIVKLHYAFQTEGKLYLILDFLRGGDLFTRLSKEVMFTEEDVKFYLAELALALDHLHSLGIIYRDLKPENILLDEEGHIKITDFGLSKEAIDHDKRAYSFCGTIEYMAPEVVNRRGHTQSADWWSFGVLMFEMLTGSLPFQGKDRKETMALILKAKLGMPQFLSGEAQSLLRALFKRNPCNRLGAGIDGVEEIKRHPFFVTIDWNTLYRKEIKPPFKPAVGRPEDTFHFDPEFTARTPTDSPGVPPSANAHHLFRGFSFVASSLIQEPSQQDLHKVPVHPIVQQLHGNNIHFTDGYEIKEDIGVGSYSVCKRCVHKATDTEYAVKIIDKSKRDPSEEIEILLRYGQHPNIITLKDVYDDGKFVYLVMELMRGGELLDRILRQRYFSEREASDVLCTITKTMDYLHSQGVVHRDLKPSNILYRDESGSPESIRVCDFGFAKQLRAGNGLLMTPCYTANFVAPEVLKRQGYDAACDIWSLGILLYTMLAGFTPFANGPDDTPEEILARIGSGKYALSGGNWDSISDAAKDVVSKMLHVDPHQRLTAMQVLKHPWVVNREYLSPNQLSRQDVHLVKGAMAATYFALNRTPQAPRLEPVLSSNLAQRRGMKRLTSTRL

ROCK2 (human), sequence (O75116 whole entry, looked up): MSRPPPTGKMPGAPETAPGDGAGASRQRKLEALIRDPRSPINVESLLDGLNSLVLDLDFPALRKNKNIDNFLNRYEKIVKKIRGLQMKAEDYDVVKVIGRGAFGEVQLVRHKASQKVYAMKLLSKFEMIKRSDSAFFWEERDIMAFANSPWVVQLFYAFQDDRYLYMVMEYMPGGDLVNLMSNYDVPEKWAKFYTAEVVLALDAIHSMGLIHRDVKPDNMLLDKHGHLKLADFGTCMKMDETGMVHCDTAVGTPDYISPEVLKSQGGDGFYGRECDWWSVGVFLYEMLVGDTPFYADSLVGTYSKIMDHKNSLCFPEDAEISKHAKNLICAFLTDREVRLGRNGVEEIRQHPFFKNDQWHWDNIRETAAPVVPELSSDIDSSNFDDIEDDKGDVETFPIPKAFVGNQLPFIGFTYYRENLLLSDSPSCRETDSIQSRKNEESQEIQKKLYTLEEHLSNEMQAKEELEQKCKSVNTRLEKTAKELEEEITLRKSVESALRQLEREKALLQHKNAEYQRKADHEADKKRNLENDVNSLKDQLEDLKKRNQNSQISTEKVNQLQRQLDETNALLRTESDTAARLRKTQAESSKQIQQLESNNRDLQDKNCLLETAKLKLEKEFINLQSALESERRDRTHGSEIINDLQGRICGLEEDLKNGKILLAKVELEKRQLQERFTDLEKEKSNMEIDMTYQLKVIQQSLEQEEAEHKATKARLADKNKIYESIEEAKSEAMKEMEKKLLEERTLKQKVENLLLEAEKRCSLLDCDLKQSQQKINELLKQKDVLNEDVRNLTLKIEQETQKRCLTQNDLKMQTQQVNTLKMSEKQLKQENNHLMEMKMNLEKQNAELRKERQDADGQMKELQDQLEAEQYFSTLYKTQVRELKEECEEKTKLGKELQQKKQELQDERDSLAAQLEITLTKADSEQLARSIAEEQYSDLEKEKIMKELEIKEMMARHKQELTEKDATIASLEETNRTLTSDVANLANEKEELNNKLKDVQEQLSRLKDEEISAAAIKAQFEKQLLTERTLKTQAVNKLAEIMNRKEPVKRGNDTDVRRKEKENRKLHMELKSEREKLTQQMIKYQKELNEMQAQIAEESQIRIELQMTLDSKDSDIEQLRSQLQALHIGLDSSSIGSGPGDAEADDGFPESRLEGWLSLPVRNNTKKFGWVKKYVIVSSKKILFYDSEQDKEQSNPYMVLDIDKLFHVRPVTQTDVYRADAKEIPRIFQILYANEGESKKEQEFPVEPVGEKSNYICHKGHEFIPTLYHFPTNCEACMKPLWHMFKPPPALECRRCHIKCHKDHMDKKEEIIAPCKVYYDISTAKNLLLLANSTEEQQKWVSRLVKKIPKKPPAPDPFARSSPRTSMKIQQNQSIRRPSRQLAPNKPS
PDK4 (human), sequence (Q16654 whole entry, looked up): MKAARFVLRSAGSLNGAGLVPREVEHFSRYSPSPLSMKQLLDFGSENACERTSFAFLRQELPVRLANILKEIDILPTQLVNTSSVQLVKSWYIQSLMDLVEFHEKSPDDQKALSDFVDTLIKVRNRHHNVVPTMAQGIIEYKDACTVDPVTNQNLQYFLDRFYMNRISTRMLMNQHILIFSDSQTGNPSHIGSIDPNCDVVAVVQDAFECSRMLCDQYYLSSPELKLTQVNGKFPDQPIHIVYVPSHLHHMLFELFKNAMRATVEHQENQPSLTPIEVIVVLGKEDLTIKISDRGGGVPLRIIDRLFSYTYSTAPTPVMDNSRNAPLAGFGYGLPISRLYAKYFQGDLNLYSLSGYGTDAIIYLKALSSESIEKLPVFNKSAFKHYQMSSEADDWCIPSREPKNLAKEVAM
EPHA8 (human), sequence (P29322 whole entry, looked up): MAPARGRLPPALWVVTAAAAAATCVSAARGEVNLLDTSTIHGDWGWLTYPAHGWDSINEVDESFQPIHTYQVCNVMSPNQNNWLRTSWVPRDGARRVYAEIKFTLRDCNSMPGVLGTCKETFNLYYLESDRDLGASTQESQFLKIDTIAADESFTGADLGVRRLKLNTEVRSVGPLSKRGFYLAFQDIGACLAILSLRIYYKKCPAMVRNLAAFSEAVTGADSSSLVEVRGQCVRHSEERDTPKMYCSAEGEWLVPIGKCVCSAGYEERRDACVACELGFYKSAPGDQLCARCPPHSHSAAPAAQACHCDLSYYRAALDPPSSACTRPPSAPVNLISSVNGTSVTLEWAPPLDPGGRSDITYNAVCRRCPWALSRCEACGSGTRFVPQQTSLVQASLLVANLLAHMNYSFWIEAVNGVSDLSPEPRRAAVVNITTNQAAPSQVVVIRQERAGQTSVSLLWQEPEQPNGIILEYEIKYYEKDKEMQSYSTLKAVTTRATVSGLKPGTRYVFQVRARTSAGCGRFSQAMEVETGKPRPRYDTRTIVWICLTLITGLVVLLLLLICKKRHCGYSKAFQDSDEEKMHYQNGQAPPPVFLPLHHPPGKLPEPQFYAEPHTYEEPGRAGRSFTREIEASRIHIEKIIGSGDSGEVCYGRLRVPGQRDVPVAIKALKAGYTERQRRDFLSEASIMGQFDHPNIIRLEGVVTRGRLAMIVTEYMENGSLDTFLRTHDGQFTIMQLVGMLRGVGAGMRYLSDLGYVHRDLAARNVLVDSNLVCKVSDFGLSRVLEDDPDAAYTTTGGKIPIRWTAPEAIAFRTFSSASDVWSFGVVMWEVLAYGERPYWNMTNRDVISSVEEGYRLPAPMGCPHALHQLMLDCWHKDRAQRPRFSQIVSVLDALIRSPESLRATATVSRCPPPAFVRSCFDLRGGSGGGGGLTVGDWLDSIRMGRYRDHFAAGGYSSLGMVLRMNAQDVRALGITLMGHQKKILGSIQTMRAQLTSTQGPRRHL
AXL (human), sequence (P30530 whole entry, looked up): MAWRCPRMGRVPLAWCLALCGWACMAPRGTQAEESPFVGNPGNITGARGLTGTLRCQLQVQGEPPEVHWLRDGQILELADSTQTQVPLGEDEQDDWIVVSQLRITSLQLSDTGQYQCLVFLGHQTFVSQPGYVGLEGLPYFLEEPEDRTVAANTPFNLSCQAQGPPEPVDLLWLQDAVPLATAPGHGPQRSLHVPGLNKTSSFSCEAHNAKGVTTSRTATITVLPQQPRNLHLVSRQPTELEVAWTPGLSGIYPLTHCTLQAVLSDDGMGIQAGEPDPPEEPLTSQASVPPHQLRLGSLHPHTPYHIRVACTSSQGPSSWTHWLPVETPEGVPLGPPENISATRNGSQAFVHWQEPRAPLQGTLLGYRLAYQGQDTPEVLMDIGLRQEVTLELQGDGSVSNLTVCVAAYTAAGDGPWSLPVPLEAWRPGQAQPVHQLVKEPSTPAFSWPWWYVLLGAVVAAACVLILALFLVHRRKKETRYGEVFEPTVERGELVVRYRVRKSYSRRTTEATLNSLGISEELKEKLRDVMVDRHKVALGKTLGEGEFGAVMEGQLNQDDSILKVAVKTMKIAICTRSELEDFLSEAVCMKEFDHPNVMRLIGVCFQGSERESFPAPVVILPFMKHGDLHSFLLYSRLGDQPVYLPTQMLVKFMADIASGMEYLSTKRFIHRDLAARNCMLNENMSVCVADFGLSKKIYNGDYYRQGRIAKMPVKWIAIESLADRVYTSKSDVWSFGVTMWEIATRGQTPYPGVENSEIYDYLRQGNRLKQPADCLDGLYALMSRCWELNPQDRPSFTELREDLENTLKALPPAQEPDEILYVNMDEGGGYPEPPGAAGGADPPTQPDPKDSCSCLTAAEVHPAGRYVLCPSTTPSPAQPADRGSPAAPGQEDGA
MAPK8 (human), sequence (P45983 whole entry, looked up): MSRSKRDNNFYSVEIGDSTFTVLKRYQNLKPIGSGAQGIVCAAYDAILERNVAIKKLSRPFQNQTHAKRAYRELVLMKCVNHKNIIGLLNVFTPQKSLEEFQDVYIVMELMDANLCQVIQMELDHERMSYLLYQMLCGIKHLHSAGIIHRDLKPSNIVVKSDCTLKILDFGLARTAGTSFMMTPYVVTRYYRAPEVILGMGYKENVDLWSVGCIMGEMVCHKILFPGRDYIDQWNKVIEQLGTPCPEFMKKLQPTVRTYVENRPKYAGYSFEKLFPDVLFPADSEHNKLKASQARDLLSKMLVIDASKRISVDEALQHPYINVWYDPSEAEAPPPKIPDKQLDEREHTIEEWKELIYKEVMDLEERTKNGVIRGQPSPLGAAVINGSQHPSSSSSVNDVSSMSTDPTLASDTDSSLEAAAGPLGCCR

Work on `CNC(=O)c1cc(Oc2ccc(NC(=O)Nc3ccc(Cl)c(C(F)(F)F)c3)cc2)ccn1` yielded an inhibition (MKNK1 (human); compound 0.02 µM) of -1.3%, an inhibition (MKNK1 (human); compound 0.2 µM) of 6.4% and an inhibition (AXL (human); compound 0.02 µM) of -7.4%. It also gave an inhibition (AXL (human); compound 0.2 µM) of 7.1%, an inhibition (INSRR (human); compound 0.02 µM) of -6.9% and an inhibition (INSRR (human); compound 0.2 µM) of -3%. It also gave an inhibition (MAPK13 (human); compound 0.02 µM) of -3.5%, an inhibition (MAPK13 (human); compound 0.2 µM) of -0.7% and an inhibition (NTRK1 (human); compound 0.02 µM) of 7.9%. It also gave an inhibition (NTRK1 (human); compound 0.2 µM) of 37.2%, an inhibition (MAPK3 (human); compound 0.02 µM) of -2.3% and an inhibition (MAPK3 (human); compound 0.2 µM) of -0.7%. For the same compound, the inhibition (EPHA4 (human); compound 0.02 µM) was -1.7%, the inhibition (EPHA4 (human); compound 0.2 µM) was 22% and the inhibition (MAPK9 (human); compound 0.02 µM) was -7.7%. For the same compound, the inhibition (MAPK9 (human); compound 0.2 µM) was 0.5%, the inhibition (RPS6KA1 KD1 KD2 (human); compound 0.02 µM) was -3.6% and the inhibition (RPS6KA1 KD1 KD2 (human); compound 0.2 µM) was 3.1%. For the same compound, the inhibition (STK38L (human); compound 0.02 µM) was -3.6%, the inhibition (STK38L (human); compound 0.2 µM) was 4.2% and the inhibition (GSK3A (human); compound 0.02 µM) was -3.9%. The inhibition (GSK3A (human); compound 0.2 µM) was 6.8%, the inhibition (CSNK1G3 (human); compound 0.02 µM) was -1.4% and the inhibition (CSNK1G3 (human); compound 0.2 µM) was -6.9%. It also gave an inhibition (RET (human); compound 0.02 µM) of 79.4%, an inhibition (RET (human); compound 0.2 µM) of 101% and an inhibition (ROCK2 (human); compound 0.02 µM) of -2%. It also gave an inhibition (ROCK2 (human); compound 0.2 µM) of 2.8%, an inhibition (HCK (human); compound 0.02 µM) of -11.6% and an inhibition (HCK (human); compound 0.2 µM) of 5.2%. For the same compound, the inhibition (EPHA6 (human); compound 0.02 µM) was 16.5%, the inhibition (EPHA6 (human); compound 0.2 µM) was 77.8% and the inhibition (MAPKAPK3 (human); compound 0.02 µM) was -6.2%. For the same compound, the inhibition (MAPKAPK3 (human); compound 0.2 µM) was 3.5%, the inhibition (CAMK4 (human); compound 0.02 µM) was -8.3% and the inhibition (CAMK4 (human); compound 0.2 µM) was 1.9%. It also gave an inhibition (AKT1 (human); compound 0.02 µM) of -2.8%, an inhibition (AKT1 (human); compound 0.2 µM) of -1.4% and an inhibition (TBK1 (human); compound 0.02 µM) of -1.4%. For the same compound, the inhibition (TBK1 (human); compound 0.2 µM) was -1.1%, the inhibition (SGK1 (human); compound 0.02 µM) was -0.6% and the inhibition (SGK1 (human); compound 0.2 µM) was 8.5%. The inhibition (AKT3 (human); compound 0.02 µM) was -2.6%, the inhibition (AKT3 (human); compound 0.2 µM) was -1.1% and the inhibition (EPHA3 (human); compound 0.02 µM) was -2.6%. For the same compound, the inhibition (EPHA3 (human); compound 0.2 µM) was 17%, the inhibition (PRKACB (human); compound 0.02 µM) was -7.7% and the inhibition (PRKACB (human); compound 0.2 µM) was 3.1%. It also gave an inhibition (MERTK (human); compound 0.02 µM) of -3.5%, an inhibition (MERTK (human); compound 0.2 µM) of 10.2% and an inhibition (EPHA8 (human); compound 0.02 µM) of 2.5%. It also gave an inhibition (EPHA8 (human); compound 0.2 µM) of 37.2%, an inhibition (RPS6KA3 KD1 KD2 (human); compound 0.02 µM) of -5% and an inhibition (RPS6KA3 KD1 KD2 (human); compound 0.2 µM) of -5.9%. The inhibition (CLK3 (human); compound 0.02 µM) was -7.5%, the inhibition (CLK3 (human); compound 0.2 µM) was 5.9% and the inhibition (STK4 (human); compound 0.02 µM) was -5.1%. It also gave an inhibition (STK4 (human); compound 0.2 µM) of -3.5%, an inhibition (MAPK8 (human); compound 0.02 µM) of -2.3% and an inhibition (MAPK8 (human); compound 0.2 µM) of -2.1%. For the same compound, the inhibition (PDK4 (human); compound 0.02 µM) was 1.9%, the inhibition (PDK4 (human); compound 0.2 µM) was 3.4% and the inhibition (RPS6KA2 KD1 KD2 (human); compound 0.02 µM) was -4.3%. It also gave an inhibition (RPS6KA2 KD1 KD2 (human); compound 0.2 µM) of -0.2%.
